Source: paper PMC13586308, “Cell type–selective targeting by heterobifunctional protein binders via in-cell enrichment” (Nature Communications, 2026)
Read-outs that look alike come from different tables or passages of the source.

What was measured:
FKBP12 [1] = molecular target: T1, FKBP12 (Homo sapiens, UniProt P62942); experiment: competitive fluorescence polarization assay, binding to FKBP12; conditions: competitive FP assay
BRD4 = molecular target: T2, BRD4 (Homo sapiens, UniProt O60885); experiment: NanoBRET BRD4, transient BRD4-NanoLuc in HEK293T cells; format: cell-based; conditions: intact HEK293 cells
T2 construct: full-length BRD4 fused to NanoLuc at N terminus; expressed in transfected cells; host or cells: HEK293T
Summary of the method: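 BRD4 engagement measured in HEK293T cells transiently expressing N-terminal NanoLuc-BRD4 (20 h), with BRD Tracer-02 at its KD concentration. Cells equilibrated with serially diluted inhibitors for 2 h at 37 °C. Donor 450 nm/acceptor 610 nm BRET read; IC50 from normalized 3-parameter fit.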

FKBP12 [2] = molecular target: T1, FKBP12; experiment: NanoBRET FKBP12 in intact HEK293 cells; format: cell-based
BRD4^BD1 = molecular target: T3, BRD4^BD1 (Homo sapiens, UniProt O60885); experiment: competitive fluorescence polarization assay, BRD4 BD1 -/+ presenter protein; format: binding
T3 construct: to the isolated BD1 and BD2 domains of BRD2, BRD3 and BRD4

BRD4^BD2 = molecular target: T4, BRD4^BD2 (Homo sapiens, UniProt O60885); experiment: competitive fluorescence polarization assay, BRD4 BD2 -/+ presenter protein; format: binding
T4 construct: to the isolated BD1 and BD2 domains of BRD2, BRD3 and BRD4

MV4-11 cells = experiment: CellTiter-Glo cell viability, MV4-11; format: cell-based, human; conditions: Homo sapiens, MV4-11, 120 h; five days, without FKBP12 PROTAC; read-out: Cell toxicity (MV4-11) - FKBP12 PROTAC IC50
BRD3BD2 = molecular target: T5, BRD3BD2 (Homo sapiens, UniProt Q15059); experiment: competitive FP assay, BRD3 BD2 -/+ FKBP12; format: binding
T5 construct: to the isolated BD1 and BD2 domains of BRD2, BRD3 and BRD4
T5 sequence (Q15059 306-415 limits assumed): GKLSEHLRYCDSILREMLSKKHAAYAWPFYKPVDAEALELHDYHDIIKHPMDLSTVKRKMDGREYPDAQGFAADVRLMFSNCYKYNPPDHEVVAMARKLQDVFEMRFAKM

BRD3BD1 = molecular target: T6, BRD3BD1 (Homo sapiens, UniProt Q15059); experiment: competitive FP assay, BRD3 BD1 -/+ FKBP12; format: binding
T6 construct: to the isolated BD1 and BD2 domains of BRD2, BRD3 and BRD4
T6 sequence (Q15059 34-140 limits assumed): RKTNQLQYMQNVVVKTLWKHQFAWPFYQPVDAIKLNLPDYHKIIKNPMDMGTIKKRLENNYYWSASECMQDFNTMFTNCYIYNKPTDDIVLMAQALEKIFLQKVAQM

[3] = molecular target: T7, His-BRD4^BD1 + eGFP-FKBP12 (Homo sapiens, UniProt O60885+P62942); experiment: HTRF ternary complex formation BRD4 BD1 + EGFP-FKBP12; format: binding; conditions: eGFP-FKBP12 5 µM, His-BRD4^BD1 100 nM; read-out: HTRF BRD4^BD1 + GFP-FKBP12 Kd
T7 construct: the His6-tag of the respective BD1 or BD2 domain of BRD4 and EGFP-labeled FKBP12

BRD4 43-463 Y390A [4] = molecular target: BRD4 43-463 Y390A (Homo sapiens, UniProt O60885, Y390A); experiment: competitive FP assay, BRD4 tandem construct Y390A; format: binding
BRD4 43-463 Y390A [5] = experiment: competitive FP assay, BRD4 tandem construct Y390A; format: binding
BRD2BD1 = molecular target: T8, BRD2BD1 (Homo sapiens, UniProt P25440); experiment: competitive FP assay, BRD2 BD1 -/+ FKBP12; format: binding
T8 construct: to the isolated BD1 and BD2 domains of BRD2, BRD3 and BRD4
T8 sequence (P25440 74-180 limits assumed): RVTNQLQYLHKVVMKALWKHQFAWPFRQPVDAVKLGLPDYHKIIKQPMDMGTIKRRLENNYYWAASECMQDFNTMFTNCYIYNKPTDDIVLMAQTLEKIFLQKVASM

INA-6 cells = experiment: cell viability, INA-6 FKBP12 knockout or NTC; format: cell-based, human; conditions: for IC50: Homo sapiens, INA-6
BRD4 43-463 = BRD4 43-463 (Homo sapiens, UniProt O60885); experiment: competitive FP assay, BRD4 tandem bromo domain construct; format: binding
BRD4 43-463 Y97A [6] = molecular target: BRD4 43-463 Y97A (Homo sapiens, UniProt O60885, Y97A); experiment: competitive FP assay, BRD4 tandem construct Y97A; format: binding
BRD4 43-463 Y97A [7] = experiment: competitive FP assay, BRD4 tandem construct Y97A; format: binding
BRD2BD2 = BRD2BD2 (Homo sapiens, UniProt P25440); experiment: competitive FP assay, BRD2 BD2 -/+ FKBP12; format: binding
Chain of BRD2BD2 (P25440 344-453 limits assumed): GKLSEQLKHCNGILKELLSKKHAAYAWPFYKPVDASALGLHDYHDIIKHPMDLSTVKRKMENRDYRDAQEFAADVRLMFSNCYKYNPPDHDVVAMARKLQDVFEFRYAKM

[8] = molecular target: T9, His-BRD4^BD2 + eGFP-FKBP12 (Homo sapiens, UniProt O60885+P62942); experiment: HTRF ternary complex formation BRD4 BD2 + EGFP-FKBP12; format: binding; conditions: eGFP-FKBP12 5 µM, His-BRD4^BD2 100 nM; read-out: HTRF BRD4^BD2 + GFP-FKBP12 Kd
T9 construct: the His6-tag of the respective BD1 or BD2 domain of BRD4 and EGFP-labeled FKBP12

Structure (SMILES): Cc1sc2c(c1C)C(c1ccc(Cl)cc1)=NC(CC(=O)N1CCC3(CC1)CC(n1cc(C4CN(Cc5ccccn5)C(=O)C5CCCC4N5S(=O)(=O)c4cc(Cl)cc(Cl)c4)nn1)C3)c1nnc(C)n1-2 (stereo not shown) [a13c]
- Kd (FKBP12 [1]): 1.7 nM
- IC50 (BRD4): 9060 nM
- IC50 (FKBP12 [2]): 76 nM
- Kd (BRD4^BD1; 15 µM FKBP51FK1, read-out: Binding to BRD4BD1 + FKBP51FK1 Kd): 870 ± 100 nM
- Kd (BRD4^BD1; absence of FKBP12, 2 nM JQ1-FL tracer, read-out: Binding to BRD4^BD1 - FKBP12 Kd): 4600 ± 800 nM
- Kd (BRD4^BD1; absence of FKBP51FK1 (SI Table 3), read-out: Binding to BRD4BD1 - FKBP51FK1 Kd): 1500 ± 450 nM
- Kd (BRD4^BD1; presence of 15 µM FKBP12, read-out: Binding to BRD4^BD1 + FKBP12 Kd (converted)): 35 nM
- α BRD4^BD1 (binding cooperativity factor) (BRD4^BD1; ratio of binding in absence or presence of FKBP12): 131
- Kd (BRD4^BD1; values quoted in rebuttal letter (earlier version of Tab. 1), read-out: binding to BRD4BD1 + FKBP12): 20 nM
- Kd (BRD4^BD2; 15 µM FKBP51FK1, read-out: Binding to BRD4BD2 + FKBP51FK1 Kd): 190 ± 30 nM
- Kd (BRD4^BD2; absence of FKBP12, 2 nM JQ1-FL tracer, read-out: Binding to BRD4^BD2 - FKBP12 Kd): 2300 ± 400 nM
- Kd (BRD4^BD2; absence of FKBP51FK1 (SI Table 3), read-out: Binding to BRD4BD2 - FKBP51FK1 Kd): 1600 ± 400 nM
- Kd (BRD4^BD2; presence of 15 µM FKBP12, read-out: Binding to BRD4^BD2 + FKBP12 Kd (converted)): 1900 nM
- IC50 (MV4-11 cells): 7.7 nM
- α BRD3BD2 (BRD3BD2): 0.3
- Kd (BRD3BD2; 15 µM FKBP12, read-out: Binding to BRD3BD2 + FKBP12 Kd): 3000 ± 350 nM
- Kd (BRD3BD2; absence of FKBP12, read-out: Binding to BRD3BD2 - FKBP12 Kd): 950 ± 100 nM
- α BRD3BD1 (BRD3BD1): 46
- Kd (BRD3BD1; 15 µM FKBP12, read-out: Binding to BRD3BD1 + FKBP12 Kd): 56 ± 5 nM
- Kd (BRD3BD1; absence of FKBP12, read-out: Binding to BRD3BD1 - FKBP12 Kd): 2600 ± 1000 nM
- Kd [3]: 13 ± 2 nM
- Kd (BRD4 43-463 Y390A [4]; Binding to BRD4 43-463 Y390A + FKBP12 Kd, 15 µM FKBP12): 15 ± 2 nM
- Kd (BRD4 43-463 Y390A [4]; absence of FKBP12): 860 ± 140 nM
- α BRD4 43-463 Y390A (BRD4 43-463 Y390A [5]): 57
- α BRD2BD1 (BRD2BD1): 34
- Kd (BRD2BD1; 15 µM FKBP12, read-out: Binding to BRD2BD1 + FKBP12 Kd): 100 ± 14 nM
- Kd (BRD2BD1; absence of FKBP12, read-out: Binding to BRD2BD1 - FKBP12 Kd): 3400 ± 1600 nM
- Cell toxicity INA-6 FKBP12 KO IC50 (INA-6 cells; FKBP12 knockout cells): hardly observable
- IC50 (INA-6 cells; FKBP12 knockout cells, read-out: Cell toxicity INA-6 FKBP12 KO IC50): > 1600 nM
- IC50 (INA-6 cells; nontargeted control (NTC) cells, read-out: Cell toxicity INA-6 NTC IC50): 13 nM
- α BRD4 43-463 (BRD4 43-463): 20
- Kd (BRD4 43-463; Binding to BRD4 43-463 + FKBP12 Kd, 15 µM FKBP12): 39 ± 3 nM
- Kd (BRD4 43-463; Binding to BRD4 43-463 - FKBP12 Kd, absence of FKBP12): 790 ± 120 nM
- Kd (BRD4 43-463 Y97A [6]; Binding to BRD4 43-463 Y97A + FKBP12 Kd, 15 µM FKBP12): 670 ± 90 nM
- Kd (BRD4 43-463 Y97A [6]; Binding to BRD4 43-463 Y97A - FKBP12 Kd, absence of FKBP12): 800 ± 110 nM
- α BRD4 43-463 Y97A (BRD4 43-463 Y97A [7]): 1.2
- α BRD2BD2 (BRD2BD2): 1.6
- Kd (BRD2BD2; 15 µM FKBP12, read-out: Binding to BRD2BD2 + FKBP12 Kd): 600 ± 100 nM
- Kd (BRD2BD2; absence of FKBP12, read-out: Binding to BRD2BD2 - FKBP12 Kd): 960 ± 350 nM
- Kd [8]: 300 ± 30 nM
